Experimental findings from patent publication US20090069441A1, “Motuporamine Mimic Agents” (priority 2006, published 2009) are described below.

Usually inhibition stands for the change of the read-out against control, counted positive when it falls. Lower therefore signals a response near the control. Broadly, the Ki is a dissociation constant, usually derived from enzyme kinetics or from competition with a known ligand.

Read-outs that look alike come from different tables or passages of the source.

Assay [1] concerns Drosophila imaginal leg discs. Put plainly: Imaginal disc eversion assay. The class given is cell-based, Drosophila melanogaster. The following applies: 15 hr incubation in Robb's medium; for inhibition at 18 µM: Drosophila melanogaster. As to the method: DihydroMotuporamine C, 4a, was used to develop an imaginal disc assay in Drosophila flies. The imaginal leg discs were collected by microscopic dissection from maggots. […] Inhibition was measured as failure of the disc to fully develop into a fly leg after 15 hr of incubation in Robb's growth medium. This presumably occurs by overactivation of Rho, an important signaling pathway in development. Hyper-stimulation of this pathway is sufficient to block development of the fly leg.
Fly Stocks: 20 female and 5 male wild type Oregon variant of Drosophila melanogaster interbred in blue food medium for 24 hours then flies are removed. Third instar wall-crawling larvae collected then dissected on the sixth day. Flies kept in 25° C. incubation chamber.
Blue Food Preparation: Standard corn meal medium heated then mixed completely with aqueous 1% Bromophenol Blue. The food medium is cooled for one day or more before use.
Dissection Medium: Ringer's Buffer with 10 uL 0.1% BSA. Ringer's Medium consists of 130 mM NaCl, 5 mM KCl, 1.5 mM CaCl2-2H2O, Stored at room temperature (23° C.), BSA added before dissection.
Cultivation Medium: Minimal Robb's Medium with 10 uL 0.1% BSA. Minimal Robb's Medium consists of 40 mM KCl, 0.4 mM KH2PO4, 40 mM NaCl, 0.4 mM NaH2PO4.7H2O, 1.2 mM MgSO4.7H2O, 1.2 mM MgCl2-6H2O, 1 mM CaCl2-2H2O, 10 mM Glucose, 0.2 mM L-asparagine, 4.0 mM L-glutamine, 0.16 mM Glycine, 0.64 mM L-leucine, 0.32 mM L-proline, 0.16 mM R-Serine, 0.64 mM L-valine. Stored at −25° C. One day before dissection, aliquot defrosted in 4° C. Add BSA then warmed to room temperature (23° C.) before dissection.
0.1% BSA: 0.1 g BSA fraction V (Sigma#A-9647) in 10 mL distilled H2O, Stored at 4° C.
Developmental Hormone: 1 mg 20-hydroxyecdysone (Sigma #H-5142) in 1 mL 100% Ethanol. Stored at −25° C. Before use, stock is diluted 10× (1 mL added to 9 mL of 100% Ethanol). 10 μL of diluted 20-hydroxyecdysone is added to culture.
Dissection Procedures: Third instar larvae are removed from cultivation bottle with a wetted brush and washed in dH2O to remove food medium clinging to larvae. The cleaned larvae are dissected in Ringer's Medium using forceps. The imaginal discs are washed in fresh Ringer's Medium, and then cultivated with 1 mL of Robb's Medium in 12-well culture plate. Each culture well should have 30˜40 imaginal discs.
Culturing Procedures: In a larger container, place the 12-well culture plate on a moist towel, then seal the large container. Cultivate at 25° C. for 15 hours. Evaluation: Three categories will be used to grade the eversion of each imaginal disc. Full Eversion—the leg is fully extended from the disc. Partial Eversion—the leg is protruding from the epithelial. No Eversion—no sign of any protrusion.

The subject of a further assay is CHO-MG cells. Put plainly: Cytotoxicity in PAT-deficient CHO-MG cells. The class given is cell-based, Chinese hamster. The following applies: Cricetulus griseus, CHO-MG. The source says: (§1) In terms of Table 1, L1210 cells are mouse leukemia cells and are the gold standard in terms of evaluating polyamine cytotoxicity data due to a plethora of prior data in this cell line for other polyamine structures. Clearly 7a was similar in all respects to 4a (Table 1). […] The lower the Ki value, the higher the affinity of the drug for the polyamine transporter (PAT) on the cell surface. Chinese hamster ovary (CHO) cells and a mutant line without an active PAT (CHO-MG) also evaluated the PAT selectivity of these drugs.
(§2) CHO and CHO-MG studies. Chinese hamster ovary (CHO) cells were chosen along with a mutant cell line (CHO-MG) in order to comment on how the synthetic conjugates gain access to cells. The CHO-MG cell line is polyamine-transport deficient and was isolated after selection for growth resistance to methylglyoxalbis(guanylhydrazone), MGBG, (CH3C[═N—NHC(═NH)NH2]CH[═N—NHC(═NH)NH2]) using a single-step selection after mutagenesis with ethylmethanesulfonate (Mandel et al., J. Cell. Physiol., 1978, 97, 335-344; Byers et al., Biochem. J. 1989, 263, 745-752).
For the purposes of this study, the CHO-MG cell line represents cells with no PAT activity and provided a model for alternative modes of entry or action, which are independent of PAT. These alternative modes of entry include passive diffusion or utilization of another transporter. The alternative modes of action may also include interactions on the outer surface of the plasma membrane or other membrane receptor interactions.
(§3) Biological studies. Murine leukemia cells (L1210), CHO and CHO-MG cells were grown in RPMI medium supplemented with 10% fetal calf serum, glutamine (2 mM), penicillin (100 U/mL), streptomycin (50 μg/mL). L-Proline (2 μg/mL) was added to the culture medium for CHO-MG cells. Cells were grown at 37° C. under a humidified 5% CO2 atmosphere. […] Trypan blue staining was used to determine cell viability before the initiation of a cytotoxicity experiment. Cells in early to mid log-phase were used. IC50 determinations. Cell growth was assayed in sterile 96-well microtiter plates (Becton-Dickinson, Oxnard, Calif., USA). L1210 cells were seeded at 5e^4 cells/mL of medium (100 μL/well). CHO and CHO-MG cells were plated at 2e^3 cells/mL. Drug solutions (10 μL per well) of appropriate concentration were added at the time of seeding for L1210 cells and after an overnight incubation for the CHO cell lines. After exposure to the drug for 48 hr, cell growth was determined by measuring formazan formation from 3-(4,5-dimethylthiazol-2-yl)2,5-diphenyltetrazolium using a Titertek Multiskan MCC/340 microplate reader for absorbance (540 nm) measurements (Mosmann, T., J. Immunol. Methods 1983, 65, 55-63).

Another assay deals with L1210 cells. Put plainly: Cytotoxicity (cell growth, MTT) in L1210 cells. Particulars: Mus musculus, read-out: L1210 IC50. Type of assay: cell-based, mouse.
Description: as §1
Biological Evaluation. Once synthesized, the conjugates were screened for cytotoxicity in L1210, CHO and CHO-MG cells. L1210 (mouse leukemia) cells were selected to enable comparisons with the published IC50 and Ki values for a variety of polyamine substrates. Chinese Hamster Ovary (CHO) cells were chosen along with a mutant PAT deficient cell line (CHO-MG) in order to comment on selective transport via the PAT (Wang et al, J. Med. Chem. 2003, 46, 2663-2671; Wang et al, J. Med. Chem. 2003, 46, 2672-2682; Wang et al., J. Med. Chem. 2003, 46, 5129-5138; Delcros et al., J. Med. Chem., 2002, 45, 5098-5111).
(§4) L1210 IC50 and Ki studies. […] The Ki values in Table 3 were determined for [^14C]spermidine uptake and reflect the affinity of the polyamine derivative for the polyamine transporter on the cell surface. With both parameters, one can determine whether high affinity for the transporter (e.g., low Ki value) translated into high cytotoxicity (e.g., low IC50 value), etc.
Biological studies. Murine leukemia cells (L1210), CHO and CHO-MG cells were grown in RPMI medium supplemented with 10% fetal calf serum, glutamine (2 mM), penicillin (100 U/mL), streptomycin (50 μg/mL). L-Proline (2 μg/mL) was added to the culture medium for CHO-MG cells. Cells were grown at 37° C. under a humidified 5% CO2 atmosphere. Aminoguanidine (AG, 2 mM) was added to the culture medium to prevent oxidation of the drugs by the enzyme (bovine serum amine oxidase) present in calf serum. Trypan blue staining was used to determine cell viability before the initiation of a cytotoxicity experiment. Cells in early to mid log-phase were used. IC50 determinations. Cell growth was assayed in sterile 96-well microtiter plates (Becton-Dickinson, Oxnard, Calif., USA). L1210 cells were seeded at 5e^4 cells/mL of medium (100 μL/well). CHO and CHO-MG cells were plated at 2e^3 cells/mL. Drug solutions (10 μL per well) of appropriate concentration were added at the time of seeding for L1210 cells and after an overnight incubation for the CHO cell lines. After exposure to the drug for 48 hr, cell growth was determined by measuring formazan formation from 3-(4,5-dimethylthiazol-2-yl)2,5-diphenyltetrazolium using a Titertek Multiskan MCC/340 microplate reader for absorbance (540 nm) measurements (Mosmann, T., J. Immunol. Methods 1983, 65, 55-63).

Assay [2] relates to polyamine transporter (PAT). The experiment in a line: Ki for inhibition of [14C]spermidine uptake in L1210 cells. Type of assay: cell-based, mouse. The following applies: [14C]spermidine uptake, 10-min, 1 μM substrate; read-out: L1210 Ki values.
Description: as §1, §4
Ki procedure. The ability of the conjugates to interact with the polyamine transport system was determined by measuring competition by the conjugates against radiolabeled spermidine uptake in L1210 cells. Initially, the Km value of spermidine transport was determined as previously described (Clément et al., Biochem. J. 1995, 312, 933-938). The ability of conjugates to compete for [^14C]spermidine uptake were determined in L1210 cells by a 10-min uptake assay in the presence of increasing concentrations of competitor, using 1 μM [^14C]spermidine as substrate. Ki values for inhibition of spermidine uptake were determined using the Cheng-Prusoff equation (Cheng and Prusoff, Biochem. Pharmacol. 1973, 22, 3099-3108) from the IC50 value derived by iterative curve fitting of the sigmoidal equation describing the velocity of spermidine uptake in the presence of the respective competitor (Torossian et al., Biochem. J., 1996, 319, 21-26). L1210 cells were grown and maintained according to established procedures (Bergeron et al., J. Med. Chem. 2000, 43, 224-235) and were washed twice in HBSS prior to the transport assay.

The next assay relates to CHO cells. The experiment in a line: Cytotoxicity in CHO cells. The class given is cell-based, Chinese hamster. The following applies: for IC50: Cricetulus griseus, CHO.
Description: as §1, §2
In contrast, the parent CHO cell line represents a cell type with high PAT activity. Comparison of conjugate cytotoxicity in these two CHO lines provided an important screen to detect selective conjugate delivery via the PAT. For example, a conjugate with high utilization of the polyamine transporter would be very toxic to CHO cells, but less so to CHO-MG cells. In short, highly-selective PAT ligands should give high (CHO-MG/CHO) IC50 ratios.
as §3

In assay [1], `NCCCNCc1c2ccccc2cc2ccccc12` [Compound 16, N1-Anthracen-9-ylmethyl-propane-1,3-diamine] displayed an inhibition at 18 µM of 92%.

`NCCCCNCc1c2ccccc2cc2ccccc12` [Compound 13b]: the “% Inhibition of eversion” value in assay [1] (18 μM) came out at 91%.

Consider `CCNCCCCNCCCCNCc1c2ccccc2cc2ccccc12` [Compound 27, N-Anthracen-9-ylmethyl-N′-(4-ethylamino-butyl)-butane-1,4-diamine], for which the IC50 in the assay with CHO-MG cells (absence of AG, 48 h, read-out: CHO-MG IC50 w/o AG) stood at 51.2 µM; in the assay on CHO-MG cells (in the presence of AG, 48 h at 37° C., read-out: CHO-MG IC50) it was 57.9 µM; in the assay with L1210 cells (L1210, in the presence of AG, 48 h at 37° C.), 1.01 µM; in the assay with L1210 cells (L1210 experiments, no added SPD), 1.01 µM; with CHO cells (absence of AG, 48 h, read-out: CHO IC50 w/o AG), 13.2 µM; in the assay on CHO cells (in the presence of AG, 48 h at 37° C., read-out: CHO IC50), 9.82 µM. Further, the inhibitory constant (Ki) in assay [2] was found to be 3.5 µM. In the assay on CHO cells (absence of AG), the “CHOMG/CHO IC50 ratio in the absence of AG” value turned out to be 4. In addition, in the assay with CHO cells (absence of AG), the “IC50 Ratio (CHO-MG/CHO) w/o AG” value is reported as 4. For the same compound, the “IC50 Ratio (CHO-MG/CHO), a measure of PAT selectivity” value in the assay on CHO cells (in the presence of AG) came out at 5.9. In the assay on CHO cells (with AG), the “CHOMG/CHO IC50 ratio” value came out at 5.9. Besides, the “IC50 Ratio (CHO-MG/CHO) with AG” value with CHO cells (with AG) was 5.9.

In assay [1], `CCN(CCCN)Cc1c2ccccc2cc2ccccc12` [Compound 12c, N^1-Anthracen-9-ylmethyl-N^1-ethyl-propane-1,3-diamine] had an inhibition at 18 µM of 79%.

Consider `CCN(CCCNCCCO)Cc1c2ccccc2cc2ccccc12` [Compound 20, 3-[3-(Anthracen-9-ylmethyl-ethyl-amino)-propylamino]-propan-1-ol], for which the inhibition at 18 µM in assay [1] is 38%.

`CCN(CCCNCCCNC(C)=O)Cc1c2ccccc2cc2ccccc12` [Compound 24, N-{3-[3-(Anthracen-9-ylmethyl-ethyl-amino)-propylamino]-propyl}-acetamide] had an inhibition at 18 µM in assay [1] of 58%.

Compound `CCOCCCNCCCN(CC)Cc1c2ccccc2cc2ccccc12` [Compound 21, N-Anthracen-9-ylmethyl-N′-(3-ethoxy-propyl)-N-ethyl-propane-1,3-diamine] registered an inhibition at 18 µM in assay [1] of 36%.
